This note sets out measurements from patent publication US9932309B2, “2-oxo-3,4-dihydropyridine-5-carboxylates and their use” (UNIVERSITE DE LILLE 2 DROIT ET SANTE, priority 2014, dated 2018).

A word on the EC50: it is the concentration giving half of the maximal effect.

Counter-ions that a name gives are not always drawn.

The target in one experiment is T1, hTGR5 (Homo sapiens, UniProt Q8TDU6).
T1 construct: expressed in transfected cells; host or cells: HEK293 cells, transiently co-transfected with the pCRE TA-Luciferase reporter
T1 sequence (Q8TDU6 1-330): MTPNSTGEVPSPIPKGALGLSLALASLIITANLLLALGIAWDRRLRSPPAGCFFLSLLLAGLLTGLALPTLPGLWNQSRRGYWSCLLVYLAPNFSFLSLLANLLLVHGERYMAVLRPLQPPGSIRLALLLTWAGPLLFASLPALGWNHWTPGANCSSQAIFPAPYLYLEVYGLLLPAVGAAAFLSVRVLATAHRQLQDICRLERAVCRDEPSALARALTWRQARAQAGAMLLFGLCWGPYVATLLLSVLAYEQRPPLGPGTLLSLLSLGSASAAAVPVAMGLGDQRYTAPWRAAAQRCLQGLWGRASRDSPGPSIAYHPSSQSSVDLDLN
In words: TGR5/CRE Luciferase Assay (hTGR5). The experiment is classed as cell-based. As to conditions: for EC50: HEK 293 cells co-transfected with pCMV tag4b-TGR5h and pCRE TA-Luciferase, overnight incubation; for hTGR5 % trans: percentage of the 10 μM LCA value, HEK 293 cells transfected with hTGR5. In outline: (§1)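 cAMP-dependent luciferase luminescence was measured after overnight compound exposure (duplicate concentration series) and fitted to a four-parameter logistic equation. Cells: HEK293 transiently co-expressing hTGR5 or mTGR5 with a CRE reporter; lithocholic acid at 10 μM was the reference agonist.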

Another experiment concerns the target T2, mTGR5 (Mus musculus, UniProt Q80SS6).
T2 construct: expressed in transfected cells; host or cells: HEK293 cells, transiently co-transfected with the pCRE TA-Luciferase reporter
T2 sequence (Q80SS6 1-329): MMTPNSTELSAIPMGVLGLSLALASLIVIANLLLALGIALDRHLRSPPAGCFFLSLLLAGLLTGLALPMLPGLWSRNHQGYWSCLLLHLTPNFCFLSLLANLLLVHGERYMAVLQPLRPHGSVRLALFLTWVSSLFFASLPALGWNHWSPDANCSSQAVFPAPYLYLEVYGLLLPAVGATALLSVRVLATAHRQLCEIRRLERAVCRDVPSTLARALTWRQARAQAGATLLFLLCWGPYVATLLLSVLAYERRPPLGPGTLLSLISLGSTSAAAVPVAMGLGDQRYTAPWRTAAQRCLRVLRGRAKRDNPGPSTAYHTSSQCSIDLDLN
In words: TGR5/CRE Luciferase Assay (mTGR5). As to conditions: for EC50: HEK 293 cells co-transfected with pCMV AC6-TGR5m and pCRE TA-Luciferase, overnight incubation; for mTGR5 % trans: percentage of the 10 μM LCA value, HEK 293 cells transfected with mTGR5. The class given is cell-based. An outline of the steps:
as §1

For the molecule `COCCN1C(=O)CC(c2ccc(Cl)cc2)C(C(=O)OCc2cccc(C(=O)OC)c2)=C1C` (centres unmarked) [Example 96, (3-methoxycarbonylphenyl)methyl 4-(4-chlorophenyl)-1-(2-methoxyethyl)-6-methyl-2-oxo-3,4-dihydropyridine-5-carboxylate], at hTGR5, the midpoint of the response, the EC50, lay at 1.1 µM and the hTGR5 % trans is given as 63%. Also, on mTGR5, the response was half-maximal at 0.6 µM (EC50) and the mTGR5 % trans is given as 83%.

Consider `CC1=C(C(=O)OCc2ccccc2)C(c2ccc(Cl)cc2)CC(=O)N1CC#N` (centres unmarked) [Compound 63, Benzyl 4-(4-chlorophenyl)-1-(cyanomethyl)-6-methyl-2-oxo-3,4-dihydropyridine-5-carboxylate], for which, at hTGR5, the midpoint of the response, the EC50, lay at 2.2 µM and the hTGR5 % trans was 50%. On mTGR5, this molecule had an EC50 of 2 µM and a mTGR5 % trans of 57%.

As to `COCCN1C(=O)CC(c2ccc(Cl)cc2)C(C(=O)N2CCCc3ccccc32)=C1C` (centres unmarked) [Example 77, 4-(4-chlorophenyl)-5-(3,4-dihydro-2H-quinoline-1-carbonyl)-1-(2-methoxyethyl)-6-methyl-3,4-dihydropyridin-2-one], on hTGR5, the EC50 stood at 2.9 µM and the hTGR5 % trans was 71%. On mTGR5, this molecule registered an EC50 of 12.3 µM and a mTGR5 % trans of 73%.

On hTGR5, `CC1=C(C(=O)OCc2ccccc2)C(c2ccc(Cl)cc2)CC(=O)N1CCN` (centres unmarked) [Compound 53, Hydrochloride salt of benzyl 1-(2-aminoethyl)-4-(4-chlorophenyl)-6-methyl-2-oxo-3,4-dihydropyridine-5-carboxylate] displayed an EC50 of 4.3 µM and a hTGR5 % trans of 16%. At mTGR5, the mTGR5 % trans stood at 0%.

With `CC1=C(C(=O)OCc2c(F)cccc2F)C(c2ccc(Cl)cc2)CC(=O)N1C` (centres unmarked) [Example 82, (2,6-difluorophenyl)methyl 4-(4-chlorophenyl)-1,6-dimethyl-2-oxo-3,4-dihydropyridine-5-carboxylate], at hTGR5, the response was half-maximal at 0.7 µM (EC50) and the hTGR5 % trans was determined as 74%. For the same molecule, on mTGR5, the midpoint of the response, the EC50, lay at 1.5 µM and the mTGR5 % trans was found to be 59%.

On hTGR5, `COCCOc1ccc(COC(=O)C2=C(C)N(C[C@H]3CCCO3)C(=O)C[C@H]2c2ccc(Cl)cc2)cc1` (racemic) [Example 136, 4-(2-methoxyethoxy)phenyl]methyl (4S)-4-(4-chlorophenyl)-6-methyl-2-oxo-1-[[(2R)-tetrahydrofuran-2-yl]methyl]-3,4-dihydropyridine-5-carboxylate and 4-(2-methoxyethoxy)phenyl]methyl (4R)-4-(4-chlorophenyl)-6-methyl-2-oxo-1-[[(2S)-tetrahydrofuran-2-yl]methyl]-3,4-dihydropyridine-5-carboxylate] displayed an EC50 of 0.02 µM and a hTGR5 % trans of 93%. Further, on mTGR5, the midpoint of the response, the EC50, lay at 0.04 µM and the mTGR5 % trans stood at 111%.

At hTGR5, `CC1=C(C(=O)OCc2ccccc2)C(c2ccc(Cl)cc2)CC(=O)N1CCCN(C)C` (centres unmarked) [Compound 54, Benzyl 4-(4-chlorophenyl)-1-[3-(dimethylamino)propyl]-6-methyl-2-oxo-3,4-dihydropyridine-5-carboxylate] showed an EC50 of 4.2 µM and a hTGR5 % trans of 10%. The molecule also displayed a mTGR5 % trans on mTGR5 of 0%.

As for `COCCN1C(=O)CC(c2ccc(Cl)cc2)C(C(=O)OCc2ccc3ccccc3c2)=C1C` (centres unmarked) [Example 106, 2-naphthylmethyl 4-(4-chlorophenyl)-1-(2-methoxyethyl)-6-methyl-2-oxo-3,4-dihydropyridine-5-carboxylate], the concentration giving a half-maximal response (EC50) on hTGR5 turned out to be 0.4 µM; at mTGR5, 0.2 µM.

On hTGR5, `CC1=C(C(=O)OCc2ccccc2)C(c2ccc(Cl)cc2)CC(=O)N1Cc1ccccc1` (centres unmarked) [Compound 41, Benzyl 1-benzyl-4-(4-chlorophenyl)-6-methyl-2-oxo-3,4-dihydropyridine-5-carboxylate] yielded an EC50 of 1.3 µM and a hTGR5 % trans of 55%. At mTGR5, this molecule registered an EC50 of 1.2 µM and a mTGR5 % trans of 55%.

Consider `CC1=C(C(=O)OCc2ccccc2)C(c2ccc(Cl)cc2)CC(=O)N1CCN1CCCCC1` (centres unmarked) [Compound 56, Benzyl 4-(4-chlorophenyl)-6-methyl-2-oxo-1-[2-(1-piperidyl)ethyl]-3,4-dihydropyridine-5-carboxylate], for which, on hTGR5, the EC50 was 3.6 µM and the hTGR5 % trans is given as 50%. At mTGR5, this molecule yielded a mTGR5 % trans of 3%.

In the case of `CC1=C(C(=O)OCc2ccc(OCCS(=O)(=O)O)cc2)[C@@H](c2ccc(Cl)nc2)CC(=O)N1C[C@@H]1CCCO1.N` (racemic) [Example 153, Ammonium,2-[4-[[(4S)-4-(6-chloro-3-pyridyl)-6-methyl-2-oxo-1-[[(2R)-tetrahydrofuran-2-yl]methyl]-3,4-dihydropyridine-5-carbonyl]oxymethyl]phenoxy]ethanesulfonate and ammonium,2-[4-[[(4R)-4-(6-chloro-3-pyridyl)-6-methyl-2-oxo-1-[[(2S)-tetrahydrofuran-2-yl]methyl]-3,4-dihydropyridine-5-carbonyl]oxymethyl]phenoxy]ethanesulfonate], on hTGR5, a half-maximal effect (EC50) was put at 0.13 µM and the hTGR5 % trans came out at 101%. Also, on mTGR5, a half-maximal effect (EC50) was put at 0.13 µM and the mTGR5 % trans is listed as 102%.

Take `COCCN1C(=O)CC(c2ccc(C#N)cc2)C(C(=O)OCc2ccccc2OC)=C1C` (centres unmarked) [Example 125, (2-methoxyphenyl)methyl 4-(4-cyanophenyl)-1-(2-methoxyethyl)-6-methyl-2-oxo-3,4-dihydropyridine-5-carboxylate]: on hTGR5, the response was half-maximal at 0.2 µM (EC50) and the hTGR5 % trans is 86%. Moreover, at mTGR5, the EC50 came to 0.2 µM and the mTGR5 % trans is 100%.

Regarding `COCCN1C(=O)CC(c2ccc(Cl)cc2)C(C(=O)OCc2ccc(C(=O)OC)cc2)=C1C` (centres unmarked) [Example 97, (4-methoxycarbonylphenyl)methyl 4-(4-chlorophenyl)-1-(2-methoxyethyl)-6-methyl-2-oxo-3,4-dihydropyridine-5-carboxylate], on hTGR5, the EC50 came out at 0.4 µM and the hTGR5 % trans came out at 76%. Moreover, at mTGR5, the EC50 amounted to 0.4 µM and the mTGR5 % trans was determined as 76%.

Turning to `CCOC(=O)C1=C(c2ccccc2)N(C)C(=O)CC1c1ccc(Cl)cc1` (centres unmarked) [Example 20, Ethyl 4-(4-chlorophenyl)-1-methyl-2-oxo-6-phenyl-3,4-dihydropyridine-5-carboxylate], at hTGR5, the EC50 amounted to 3 µM and the hTGR5 % trans is on record as 42%. On mTGR5, this molecule gave an EC50 of 2.5 µM and a mTGR5 % trans of 53%.

At hTGR5, `COCCN1C(=O)CC(c2ccc(Cl)cc2)C(C(=O)OCc2cccc(Cl)c2)=C1C` (centres unmarked) [Example 88, (3-chlorophenyl)methyl 4-(4-chlorophenyl)-1-(2-methoxyethyl)-6-methyl-2-oxo-3,4-dihydropyridine-5-carboxylate] came in with an EC50 of 0.2 µM and a hTGR5 % trans of 75%. At mTGR5, this molecule came in with an EC50 of 0.4 µM and a mTGR5 % trans of 91%.

At hTGR5, `COc1ccccc1COC(=O)C1=C(C)N(Cc2ccco2)C(=O)CC1c1ccc(Cl)cc1` (centres unmarked) [Compound 66] had an EC50 of 0.2 µM and a hTGR5 % trans of 62%. In addition, at mTGR5, a half-maximal effect (EC50) was put at 0.1 µM and the mTGR5 % trans came to 78%.

On hTGR5, `CC1=C(C(=O)OCc2ccc(C(F)(F)F)cc2)C(c2ccc(Cl)cc2)CC(=O)N1C` (centres unmarked) [Example 80, [4-(trifluoromethyl)phenyl]methyl 4-(4-chlorophenyl)-1,6-dimethyl-2-oxo-3,4-dihydropyridine-5-carboxylate] showed an EC50 of 1.5 µM and a hTGR5 % trans of 60%. For the same molecule, on mTGR5, the EC50 was 1.4 µM and the mTGR5 % trans is 67%.

On hTGR5, `COc1ccccc1COC(=O)C1=C(C)N(CC2CC2)C(=O)CC1c1ccc(Cl)cc1` (centres unmarked) [Compound 70, o-methoxybenzyl 4-(4-chlorophenyl)-1-(cyclopropylmethyl)-6-methyl-2-oxo-3,4-dihydropyridine-5-carboxylate] had an EC50 of 0.07 µM and a hTGR5 % trans of 65%. For the same molecule, at mTGR5, a half-maximal response (EC50) required 0.08 µM and the mTGR5 % trans came out at 102%.

At hTGR5, `COCCN1C(=O)CC(c2ccc(Cl)cc2)C(C(=O)OCc2ccncc2)=C1C` (centres unmarked) [Example 107, 4-pyridylmethyl 4-(4-chlorophenyl)-1-(2-methoxyethyl)-6-methyl-2-oxo-3,4-dihydropyridine-5-carboxylate] returned an EC50 of 1.2 µM and a hTGR5 % trans of 71%. On mTGR5, this molecule displayed an EC50 of 0.6 µM and a mTGR5 % trans of 83%.
